{
  "source": "patent US20260117171A1",
  "about": "“Human Pregnancy on a Chip for Normal and Disease Biomarker Discovery and Preclinical Trials” (Board of Regents, The University of Texas System, priority 2023, published 2026)",
  "test_system": "CD45+ cells",
  "assay": "CD45+ cell trafficking between maternal/fetal compartments in the OOC device in response to an infectious stimulus",
  "type": "cell-based, human",
  "conditions": "LPS as infectious stimulus, preliminary study",
  "procedure": "Immune cell migration and phenotyping by Cytometry by Time Of Flight (CyTOF) analysis: Preliminary CD45+ cell trafficking studies between the maternal/fetal compartments in the OOC device in response to an infectious stimulus (lipopolysaccharide [LPS]), to mimic bacterial infection, was conducted. In this model, LPS increased CD45+ cell influx into the fetal side and increased inflammation. Similar experiments can be repeated, and cell marker specificity can be tested through flow cytometry and immunocytochemistry^178. To study immunophenotypic changes associated with migrating immune cells, a multiplex tissue imaging technology can be used, e.g., Imaging Mass Cytometry (IMC) at an unprecedented resolution^179. IMC allows highly multiplexed, metal-based detection of 30 different protein markers at the same time, and enables high-dimensional, single-cell analysis of complex cell types without any background noise^180-184 (see Table 3 for a list of key/exemplary antibodies). For IMC, the top PDMS part can be removed so that fixed/attached cells stay on the histological glass slides on which the OOC device is built. IMC technology can be introduced to the OOC field, which allows for the analysis of cellular-level changes in OOC.",
  "data": [
    {"substance": "lipopolysaccharide [LPS]", "values": [
      {"measurement": "CD45+ cell influx into the fetal side", "result": "increased"},
      {"measurement": "inflammation", "result": "increased"}
    ]}
  ]
}
